Among the data in PMC7125129, “Anti-HIV agent azidothymidine decreases Tet(X)-mediated bacterial resistance to tigecycline in Escherichia coli” (Communications Biology, 2020) are IC50 and MIC values, retold here.

Like-named read-outs stand apart in the source and are kept apart here. A value given as a limit tells only on which side of the number the result lay.

One test has as its target T1, Tet(X4) (Escherichia coli, UniProt A0A3T0V9Y5).
T1 construct: gene mtr-1
The test is described as follows: purified enzyme inhibition assay, tigecycline absorbance at […] nm. Format: biochemical.

The test system of another test is T2, E. brevis S1-3 (tet(X3)).
T2 construct: S1-3 (tet(X3))
The test is described as follows: organism not typed. The conditions noted are these: read-out: MIC (μg/mL). Also noted: Broth microdilution MIC, bacterial growth inhibition in Mueller-Hinton broth. The protocol: (§1) Bacterial and chemical reagents Sequential culturing of E. coli ATCC 25922 in the presence of subinhibitory levels of tigecycline, azidothymidine, or the combination. After 24 h co-incubation, any cultures that grew at higher than the MIC levels were passaged on drug free MHA plates and the MIC was then determined by broth microdilution. This serial passaging was repeated daily for 30 days. To further evaluate the synergistic activity between tigecycline and three candidates, standard checkerboard microdilution in E. coli B3-1 was performed. […] Thus, we next focused our insights on the potentiation potency of azidothymidine with tigecycline. We first evaluated the stability of the azidothymidine-tigecycline combination in the presence of salt ions and serum, which are two critical factors that affect the in vivo efficacy of drugs[20],[21]. […] However, addition of divalent cations such as Ca^2+ and Mg^2+ (10 mM) abolished its potentiation activity, but EDTA could augment the synergistic effect (Supplementary Fig. 2). Considering that divalent cations and EDTA are associated with membrane permeability, we speculated that entrance of two drugs into bacteria contribute to their activity. Next, we assessed the potency of this combination in a panel of clinical isolates from animals and environmental samples (Supplementary Tables 2 and 3). […]

Test [1] has as its system T3, E. fergusonnii 1C4-6 (tet(X4)).
T3 construct: 1C4-6 (tet(X4))
The test is described as follows: organism not typed. Also noted: Broth microdilution MIC, bacterial growth inhibition in Mueller-Hinton broth. The conditions noted are these: read-out: MIC (μg/mL). The protocol: as §1

Test [2] has as its system T4, E. coli B2 (NDM-5 + MCR-1).
T4 construct: B2
The experiment in a line: microbe, parasite or virus in culture. The conditions noted are these: Escherichia coli, read-out: MIC (μg/mL). Also noted: Broth microdilution MIC, bacterial growth inhibition in Mueller-Hinton broth. The protocol: (§2) Bacterial and chemical reagents Sequential culturing of E. coli ATCC 25922 in the presence of subinhibitory levels of tigecycline, azidothymidine, or the combination. After 24 h co-incubation, any cultures that grew at higher than the MIC levels were passaged on drug free MHA plates and the MIC was then determined by broth microdilution. This serial passaging was repeated daily for 30 days. To further evaluate the synergistic activity between tigecycline and three candidates, standard checkerboard microdilution in E. coli B3-1 was performed. […] Thus, we next focused our insights on the potentiation potency of azidothymidine with tigecycline. We first evaluated the stability of the azidothymidine-tigecycline combination in the presence of salt ions and serum, which are two critical factors that affect the in vivo efficacy of drugs[20],[21]. […] However, addition of divalent cations such as Ca^2+ and Mg^2+ (10 mM) abolished its potentiation activity, but EDTA could augment the synergistic effect (Supplementary Fig. 2). Considering that divalent cations and EDTA are associated with membrane permeability, we speculated that entrance of two drugs into bacteria contribute to their activity. Next, we assessed the potency of this combination in a panel of clinical isolates from animals and environmental samples (Supplementary Tables 2 and 3). […] To investigate whether this potentiation is also applicable in Tet(X)-negative bacteria, standard ATCC sensitive bacteria and other E. coli isolates with MIC values of ≤1 μg mL^−1 for tigecycline were tested.

Another test has as its system T5, E. coli B3-1 (tet(X4)).
T5 construct: B3-1
The experiment in a line: microbe, parasite or virus in culture. Conditions: Escherichia coli. Further details: Broth microdilution MIC, bacterial growth inhibition in Mueller-Hinton broth. The protocol: as §2

The test system of the next test is T6, E. coli B8-1 (tet(X4)).
T6 construct: B8-1
The test is described as follows: microbe, parasite or virus in culture. Also noted: Broth microdilution MIC, bacterial growth inhibition in Mueller-Hinton broth. The conditions noted are these: Escherichia coli, read-out: MIC (μg/mL). The protocol: as §2

Another test has as its system T7, E. coli B9-1 (tet(X4)).
T7 construct: B9-1
The test is described as follows: microbe, parasite or virus in culture. Further details: Broth microdilution MIC, bacterial growth inhibition in Mueller-Hinton broth. The conditions noted are these: Escherichia coli, read-out: MIC (μg/mL). The protocol:
as §2

Another test relates to T8, E. coli C3 (NDM-1).
T8 construct: C3
The test is described as follows: microbe, parasite or virus in culture. Conditions: Escherichia coli, read-out: MIC (μg/mL). Also noted: Broth microdilution MIC, bacterial growth inhibition in Mueller-Hinton broth. The protocol:
as §2

In another test the test system is T9, E. coli G6 (NDM-5).
T9 construct: G6
The experiment in a line: microbe, parasite or virus in culture. Further details: Broth microdilution MIC, bacterial growth inhibition in Mueller-Hinton broth. The conditions noted are these: Escherichia coli, read-out: MIC (μg/mL). The protocol: as §2

The subject of another test is T10, E. coli P10-1 (tet(X4)).
T10 construct: P10-1
The test is described as follows: microbe, parasite or virus in culture. Also noted: Broth microdilution MIC, bacterial growth inhibition in Mueller-Hinton broth. The conditions noted are these: Escherichia coli, read-out: MIC (μg/mL). The protocol:
as §2

The subject of the next test is T11, E. coli P3-1 (tet(X4)).
T11 construct: P3-1
The test is described as follows: microbe, parasite or virus in culture. Further details: Broth microdilution MIC, bacterial growth inhibition in Mueller-Hinton broth. The conditions noted are these: Escherichia coli, read-out: MIC (μg/mL). The protocol: as §2

A further test deals with T12, E. coli W7-1 (tet(X4)).
T12 construct: W7-1
The test is described as follows: microbe, parasite or virus in culture. The conditions noted are these: Escherichia coli, read-out: MIC (μg/mL). Further details: Broth microdilution MIC, bacterial growth inhibition in Mueller-Hinton broth. The protocol:
as §2

In test [3] the test system is T13, Enterococcus faecalis VRE A4.
T13 construct: VRE A4
The experiment in a line: microbe, parasite or virus in culture. Also noted: Broth microdilution MIC, bacterial growth inhibition in Mueller-Hinton broth. Conditions: read-out: MIC (μg/mL). The protocol: as §2

Test [4] has as its system T14, Escherichia coli ATCC 25922.
T14 construct: ATCC 25922
The test is described as follows: microbe, parasite or virus in culture. Also noted: Broth microdilution MIC, bacterial growth inhibition in Mueller-Hinton broth. Conditions: Escherichia coli, ATCC25922, read-out: MIC (μg/mL). The protocol: as §2

In test [5] the test system is T15, Proteus penneri 2F1-3 (tet(X4)).
T15 construct: 2F1-3 (tet(X4))
The experiment in a line: microbe, parasite or virus in culture. Conditions: read-out: MIC (μg/mL). Also noted: Broth microdilution MIC, bacterial growth inhibition in Mueller-Hinton broth. The protocol: as §2

Test [6] concerns T16, S. aureus 215 (LZD^R + cfr).
T16 construct: 215
The test is described as follows: microbe, parasite or virus in culture. Also noted: Broth microdilution MIC, bacterial growth inhibition in Mueller-Hinton broth. The conditions noted are these: Staphylococcus aureus, read-out: MIC (μg/mL). The protocol:
as §2

For test [7], the system named is T17, Salmonella enterica ATCC 13076.
T17 construct: ATCC 13076
The experiment in a line: microbe, parasite or virus in culture. Conditions: ATCC13076, read-out: MIC (μg/mL). Also noted: Broth microdilution MIC, bacterial growth inhibition in Mueller-Hinton broth. The protocol: as §2

In test [8] the test system is T18, Shigella 1F25-27 (tet(X4)).
T18 construct: 1F25-27 (tet(X4))
The test is described as follows: microbe, parasite or virus in culture. Further details: Broth microdilution MIC, bacterial growth inhibition in Mueller-Hinton broth. The conditions noted are these: read-out: MIC (μg/mL). The protocol:
as §2

For test [9], the system named is T19, Staphylococcus aureus ATCC 29213.
T19 construct: ATCC 29213
The experiment in a line: microbe, parasite or virus in culture. Also noted: Broth microdilution MIC, bacterial growth inhibition in Mueller-Hinton broth. Conditions: Staphylococcus aureus, ATCC29213, read-out: MIC (μg/mL). The protocol: as §2

For test [10], the system named is T20, Staphylococcus aureus MRSA 1518.
T20 construct: 1518
The experiment in a line: microbe, parasite or virus in culture. Further details: Broth microdilution MIC, bacterial growth inhibition in Mueller-Hinton broth. The conditions noted are these: Staphylococcus aureus, MRSA, read-out: MIC (μg/mL). The protocol:
as §2

Test [11] has as its system T21, Staphylococcus aureus MRSA T144.
T21 construct: T144
The test is described as follows: microbe, parasite or virus in culture. Also noted: Broth microdilution MIC, bacterial growth inhibition in Mueller-Hinton broth. The conditions noted are these: Staphylococcus aureus, MRSA, read-out: MIC (μg/mL). The protocol: as §2

Compound `Cc1cn([C@H]2C[C@H](N=[N+]=[N-])[C@@H](CO)O2)c(=O)[nH]c1=O` [AZI, azidothymidine] returned a 50% inhibitory concentration (IC50) against Tet(X4) of 106 nM. Moreover, the MIC with E. brevis S1-3 (tet(X3)) is greater than 32 µg/mL; in [1], 8 µg/mL; in test [2] it was greater than 16 µg/mL; with E. coli B3-1 (tet(X4)) (read-out: MIC (μg/mL)), 1 µg/mL; with E. coli B8-1 (tet(X4)), 0.5 µg/mL; in the test on E. coli B9-1 (tet(X4)) it was 1 µg/mL. In addition, the MIC in the test with E. coli C3 (NDM-1) was greater than 16 µg/mL; in the test on E. coli G6 (NDM-5), 4 µg/mL; with E. coli P10-1 (tet(X4)), 0.25 µg/mL; in the test on E. coli P3-1 (tet(X4)), 0.5 µg/mL; with E. coli W7-1 (tet(X4)) it was 2 µg/mL; in [3], greater than 16 µg/mL. For the same compound, the MIC in test [4] was 2 µg/mL; in [5], 8 µg/mL; in test [6] it was greater than 16 µg/mL; in [7] it was 0.25 µg/mL; in [8] it was 2 µg/mL; in test [9], greater than 16 µg/mL. Further, the MIC in test [10] and in test [11] was greater than 16 µg/mL each time.

As for `CN(C)c1cc(NC(=O)CNC(C)(C)C)c(O)c2c1C[C@H]1C[C@H]3[C@H](N(C)C)C(O)=C(C(N)=O)C(=O)[C@@]3(O)C(O)=C1C2=O` [Tigecycline], the MIC with E. coli B3-1 (tet(X4)) (read-out: MHB (MIC, μg/mL)) was 32 µg/mL.

Usually IC50 stands for the concentration that gives 50% inhibition. High values mean a need for much substance, low ones inhibition by little substance.
